Test results as given in patent US5380755A, “Alkyl and alkylbenzyl ethers of substituted hydroquinones” (The Du Pont Merck Pharmaceutical Company, priority 1992, dated 1995).

How the values were obtained:
MAO A / MAO B = assay: in vitro inhibitory action on types A and B monoamine oxidase in rat brain tissue: A/B selectivity; type: biochemical; conditions: ratio MAO A / MAO B, 5-Hydroxytryptamine[14-C] 1.0 mM (MAO A), Phenethylamine[14-C] 200 mM (MAO B)
Text: The compounds of the present invention are useful in the inhibition of monoamine oxidases. […] This test measures the in vitro inhibitory action of the two types A and B monoamine oxidase in rat brain tissue. […] Finally, it is expected that the compounds of the present invention may be useful in treating neurological disorders including memory disorders, cognitive dysfunction, dementia, dementia of the Alzheimer's type, Parkinson's syndrome, depression, hyperactive syndrome, schizophrenia, and changes in temperament.

MAO B = molecular target: T1, MAO B (Rattus norvegicus, UniProt P19643); assay: in vitro inhibitory action on type B monoamine oxidase in rat brain tissue (J. Neurochem., 1983, 40, 1534); type: biochemical; conditions: 200 mM Phenethylamine[14-C] as substrate
T1 construct: two types A and B monoamine oxidase in rat brain tissue; from tissue; host or cells: rat brain
T1 sequence (P19643 1-520): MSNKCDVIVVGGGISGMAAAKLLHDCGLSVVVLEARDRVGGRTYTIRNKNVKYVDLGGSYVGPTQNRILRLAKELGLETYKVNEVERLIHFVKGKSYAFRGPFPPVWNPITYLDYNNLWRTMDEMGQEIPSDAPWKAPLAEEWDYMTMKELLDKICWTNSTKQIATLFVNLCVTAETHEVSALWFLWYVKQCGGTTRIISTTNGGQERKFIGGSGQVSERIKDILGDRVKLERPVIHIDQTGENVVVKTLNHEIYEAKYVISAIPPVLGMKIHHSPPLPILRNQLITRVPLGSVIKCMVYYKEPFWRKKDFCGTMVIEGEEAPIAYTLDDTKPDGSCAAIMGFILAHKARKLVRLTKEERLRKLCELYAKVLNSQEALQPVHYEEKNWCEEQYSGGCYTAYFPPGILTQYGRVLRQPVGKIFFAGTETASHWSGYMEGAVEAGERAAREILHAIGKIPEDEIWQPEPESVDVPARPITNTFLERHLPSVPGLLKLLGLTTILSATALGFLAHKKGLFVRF
Text: This test measures the in vitro inhibitory action of the two types A and B monoamine oxidase in rat brain tissue.

Compound | A/B (MAO A / MAO B) | IC50 (MAO B) [nM]
C#CCN(C)C(C)COc1ccc(OCc2cccc(Cl)c2)c(C(C)=O)c1 (centres unmarked) [Example 8, N-2-[3'-Acyl-4'-(m-chlorophenylmethyloxy)phenoxy]-1-methylethyl-N-methylpropargylamine] | < 300 | 3
CNC(C)COc1ccc(OCc2cccc(Cl)c2)c(C(C)=O)c1 (centres unmarked) [Example 19] |  | 7000
CC(=O)c1cc(OCc2cc(C(F)(F)F)cc(C(F)(F)F)c2)ccc1OCCCC#N [Example 6, 4-{2'-Acetyl-4'-[(3,5-trifluoromethylphenyl)methyloxy]phenoxy}-butyronitrile] | > 10000 | 100
CC(=O)c1cc(OCc2cccc(Cl)c2)ccc1OCCCO [Example 32] | 400 | 100
CCC(=O)c1cc(OCc2ccc(F)cc2)ccc1OCCCC#N [Example 33] |  | > 100000
